{"source": "patent US9604945B2", "about": "“Sydnonimines-specific dopamine reuptake inhibitors and their use in treating dopamine related disorders” (priority 2007, dated 2017)", "key": {"[1]": {"assay": "Plasma drug concentration by different routes of administration", "format": "in vivo, C57BL/6 mice", "settings": "for Plasma Concentration: time 0 (pre-dose); for concentration at 5 min / concentration at 15 min / concentration at 30 min / concentration at 60 min / concentration at 120 min / concentration at 240 min / concentration at 480 min: C57BL/6, mouse, plasma", "description": "The following materials and methods are provided to facilitate the practice of Example 9, in which drug concentration in certain biological samples were assessed using different routes of administration.\nParameters Used in Dosing and Drug Administration of the Compound of Example 3:\nAdult C57BL/6 mice (preferred 16 weeks old).\nThree mice per time point. If all three routes are conducted in same day, one group of pre-dose is efficient.\nIn the studies using adult C57BL/6 mice (preferably approximately 16 weeks old), dosing and drug administration parameters for the compound of Example 3 were explored. Clearly, the compound is suitable for oral administration and lasts in the plasma up to 2-3 hours."}, "male Swiss Webster mice [2]": {"system": "male Swiss Webster mice", "assay": "Spontaneous locomotor activity dose response study (NIDA MDD protocol)", "format": "in vivo, mouse", "settings": "3, 10, 30 or 100 mg/kg IP, FIGS. 4 and 5", "description": "(§1) A dose response study was conducted of locomotor depression induced by the compound of Example 3, according to NIDA's Medication Development Division (MDD) locomoter activity studies standard protocol. The study was conducted using 40 Digiscan locomotor activity testing chambers (40.5×40.5×30.5 cm) housed in sets of two, within sound attenuating chambers. A panel of infrared beams (16 beams) and corresponding photodetectors were located in the horizontal direction along the sides of each activity chamber. A 7.5 W incandescent light above each chamber provided dim illumination. Fans provided an 80 dB ambient noise level within the chamber. Separate groups of 8 non-habituated male Swiss Webster mice (Hsd:ND4, aged 2-3 months) were injected via the intraperitoneal (IP) route with either vehicle (2% methyl cellulose) or the compound of Example 3, above, (3, 10, 30 or 100 mg/kg) twenty minutes prior to locomotor activity testing. Just piro to placement in the apparatus, all mice received a saline injection IP. In all studies, horizontal activity (interruption of photocell beams) was measured for 1 hour within 10 minute periods. Testing was conducted with one mouse per activity chamber.\nThe same protocol was followed in a study of locomotor depression induced by the compound of Example 6. […]"}, "male Swiss Webster mice [3]": {"system": "male Swiss Webster mice", "assay": "Time-course (8 hr) mouse locomotor activity testing", "format": "in vivo", "settings": "for Duration of suppression of spontaneous locomotor activity: FIGS. 6A and 6B; for ID50 (dose producing 1/2 maximal depressant activity): IP; for Planned comparisons against the vehicle group, horizontal activity counts in period of maximal depressant effect: ps<0.05", "description": "as §1\nA time course/dose response study of the locomotor depression inducing effect of the compound of Example 3 was conducted, according to the same MDD locomotor activity studies time course protocol described immediately above, except that groups of 8 mice were injected with either vehicle (2% methylcellulose) or the compound of Example 3 (3, 10, 30 or 100 mg/kg), immediately prior to locomotor activity testing. Behavioral observations were recorded on each mouse at 30, 120 and 480 minutes following 100 mg/kg of the test compound. The vehicle used in this study was 2% methylcellulose.\nA separate time course/dose response study of the locomotor depression inducing effect of the compound of Example 6 was also conducted, under the same conditions described above for testing of the compound of Example 3. Additional groups of 8 mice were injected with either vehicle (2% methylcellulose) or the test compound (3, 10, 30 or 100 mg/kg), immediately prior to locomotor activity testing. Behavioral observations were recorded on each mouse at 30, 120 and 480 minutes following 100 mg/kg of the test compound. The vehicle used in this study was 2% methylcellulose.\n(§2) Depressant effects of 30 and 100 mg/kg occurred within 10 minutes following injection and lasted 140 to 160 minutes. The period 20-50 min was selected for analysis of dose-response data because this was the time period in which maximal suppression first appeared as a function of dose. The mean average horizontal activity counts/10 min for this 30-min period were fit to a linear function of log10 dose of the descending portion of the dose-effect curve (3 to 100 mg/kg dose range).\nas §2, with “of” for “of 30 and”, “lasted” for “lasted 140 to”, “50-80” for “20-50”, “(10” for “(3”"}, "[4]": {"assay": "Tolerability and observable behavior changes", "format": "in vivo", "settings": "for Well tolerated dose: in vivo; for Duration of observable changes in behavior: occurred in minutes"}, "male mice": {"system": "male mice", "assay": "Novel environment-induced feeding suppression (NEIFS)", "format": "in vivo, mouse", "settings": "10 and 90 mg/kg, FIG. 10", "description": "Novel environment-induced feeding suppression (NEIFS) testing was also performed. Individually housed male mice aged 8-12 weeks are used for this testing. Mice were maintained no a reverse L:D/12 p.m.:12 a.m. cycle in a barrier facility with food and water available ad libitum. Testing occurred towards the end of the light cycle between 6-12 a.m. The mice were acclimated to the testing room for at least 30 minutes.\nDays 1, 2, 3 and 5 (Home cage): A Petri dish containing crushed Graham crackers was placed in the farthest corner from each mouse in its own home cage. The time to approach (defined as nose of the mouse directed at or within 1 cm of the dish) and consume (eat, not pick up) the crackers was recorded immediately following the placement of the dish into home cage.\nDay 4 (Novel environment): The procedure followed was the same as described for home cage; however, on day 4 the mouse was placed in a new cage with bedding (novel environment) for the duration of the experiment. The mice were subsequently returned to their respective home cages for day 5 testing. The remaining crackers and Petri dish were disposed of at the end of the experiment for each mouse."}}, "data": [{"smiles": "Cc1ccc(C[n+]2[cH-]/c(=N\\C(=O)Nc3ccccc3)on2)cc1", "note": "[Example 3, N-phenylcarbamoyl-3-(p-methyl-benzyl)-sydnonimine]", "values": [{"measurement": "Plasma Concentration", "setting": "[1]; 10 mg/kg (IP)", "result": 21.00, "unit": "ng/mL"}, {"measurement": "Plasma Concentration", "setting": "[1]; 10 mg/kg (IV)", "result": 18.33, "unit": "ng/mL"}, {"measurement": "Plasma Concentration", "setting": "[1]; 10 mg/kg (PO)", "result": 10.60, "unit": "ng/mL"}, {"measurement": "Plasma Concentration", "setting": "[1]; 30 mg/kg (PO)", "result": 8.93, "unit": "ng/mL"}, {"measurement": "concentration at 5 min", "setting": "[1]; intraperitoneal, 10 mg/kg (IP)", "result": 973, "unit": "ng/mL"}, {"measurement": "concentration at 15 min", "setting": "[1]; intraperitoneal, 10 mg/kg (IP)", "result": 316, "unit": "ng/mL"}, {"measurement": "concentration at 30 min", "setting": "[1]; intraperitoneal, 10 mg/kg (IP)", "result": 544, "unit": "ng/mL"}, {"measurement": "concentration at 60 min", "setting": "[1]; intraperitoneal, 10 mg/kg (IP)", "result": 115, "unit": "ng/mL"}, {"measurement": "concentration at 120 min", "setting": "[1]; intraperitoneal, 10 mg/kg (IP)", "result": 82.5, "unit": "ng/mL"}, {"measurement": "concentration at 240 min", "setting": "[1]; intraperitoneal, 10 mg/kg (IP)", "result": 34, "unit": "ng/mL"}, {"measurement": "concentration at 480 min", "setting": "[1]; intraperitoneal, 10 mg/kg (IP)", "result": 31.2, "unit": "ng/mL"}, {"measurement": "concentration at 5 min", "setting": "[1]; 10 mg/kg (IV)", "result": 2090, "unit": "ng/mL"}, {"measurement": "concentration at 15 min", "setting": "[1]; 10 mg/kg (IV)", "result": 2110, "unit": "ng/mL"}, {"measurement": "concentration at 30 min", "setting": "[1]; 10 mg/kg (IV)", "result": 915, "unit": "ng/mL"}, {"measurement": "concentration at 60 min", "setting": "[1]; 10 mg/kg (IV)", "result": 417, "unit": "ng/mL"}, {"measurement": "concentration at 120 min", "setting": "[1]; 10 mg/kg (IV)", "result": 139, "unit": "ng/mL"}, {"measurement": "concentration at 240 min", "setting": "[1]; 10 mg/kg (IV)", "result": 47.4, "unit": "ng/mL"}, {"measurement": "concentration at 480 min", "setting": "[1]; 10 mg/kg (IV)", "result": 94.6, "unit": "ng/mL"}, {"measurement": "concentration at 5 min", "setting": "[1]; 10 mg/kg (PO)", "result": 218, "unit": "ng/mL"}, {"measurement": "concentration at 15 min", "setting": "[1]; 10 mg/kg (PO)", "result": 115, "unit": "ng/mL"}, {"measurement": "concentration at 30 min", "setting": "[1]; 10 mg/kg (PO)", "result": 59.9, "unit": "ng/mL"}, {"measurement": "concentration at 60 min", "setting": "[1]; 10 mg/kg (PO)", "result": 21.3, "unit": "ng/mL"}, {"measurement": "concentration at 120 min", "setting": "[1]; 10 mg/kg (PO)", "result": 17.6, "unit": "ng/mL"}, {"measurement": "concentration at 240 min", "setting": "[1]; 10 mg/kg (PO)", "result": 15.8, "unit": "ng/mL"}, {"measurement": "concentration at 480 min", "setting": "[1]; 10 mg/kg (PO)", "result": 14.3, "unit": "ng/mL"}, {"measurement": "concentration at 5 min", "setting": "[1]; 30 mg/kg (PO)", "result": 838, "unit": "ng/mL"}, {"measurement": "concentration at 15 min", "setting": "[1]; 30 mg/kg (PO)", "result": 670, "unit": "ng/mL"}, {"measurement": "concentration at 30 min", "setting": "[1]; 30 mg/kg (PO)", "result": 375, "unit": "ng/mL"}, {"measurement": "concentration at 60 min", "setting": "[1]; 30 mg/kg (PO)", "result": 114, "unit": "ng/mL"}, {"measurement": "concentration at 120 min", "setting": "[1]; 30 mg/kg (PO)", "result": 41.9, "unit": "ng/mL"}, {"measurement": "concentration at 240 min", "setting": "[1]; 30 mg/kg (PO)", "result": 48.5, "unit": "ng/mL"}, {"measurement": "concentration at 480 min", "setting": "[1]; 30 mg/kg (PO)", "result": 13.4, "unit": "ng/mL"}, {"measurement": "Time the compound lasts in the plasma", "setting": "[1]; mouse, in vivo", "result": "2 to 3", "unit": "h"}, {"measurement": "Effect on spontaneous locomotor activity", "setting": "male Swiss Webster mice [2]", "result": "dose dependent suppression of spontaneous locomotor activity"}, {"measurement": "Onset of depressant effects following injection", "setting": "male Swiss Webster mice [3]; 30 and 100 mg/kg IP", "result": "≤ 10", "unit": "min"}, {"measurement": "Duration of suppression of spontaneous locomotor activity", "setting": "male Swiss Webster mice [3]", "result": "at least 3 hours"}, {"measurement": "ID50 (dose producing 1/2 maximal depressant activity)", "setting": "male Swiss Webster mice [3]; period 20-50 min, 3 to 100 mg/kg dose range", "result": "~24.0", "unit": "mg/kg"}, {"measurement": "Planned comparisons against the vehicle group, horizontal activity counts in period of maximal depressant effect", "setting": "male Swiss Webster mice [3]", "result": "significant depressant effect for 30 and 100 mg/kg"}, {"measurement": "Dosage above which subjects became lethargic", "setting": "[4]", "result": "above 125 kg/mg"}, {"measurement": "Well tolerated dose", "setting": "[4]", "result": "at least 200 mg/kg"}, {"measurement": "Duration of observable changes in behavior", "setting": "[4]", "result": "2 to 3", "unit": "h"}, {"measurement": "Anxiolytic effect in novel environment induced feeding suppression", "setting": "male mice", "result": "induced measurable anxiolytic effects"}]}, {"smiles": "O=C(/N=c1\\[cH-][n+](CCCc2ccccc2)no1)Nc1ccccc1", "note": "[Example 6, N-phenylcarbamoyl-3-(phenylpropyl)-sydnonimine]", "values": [{"measurement": "Oral bioavailability compared to Example 3", "setting": "[1]; oral, 10 and 30 mg/kg, FIG. 3", "result": "relatively higher oral bioavailability"}, {"measurement": "Bioavailability in the plasma and brain compared to Example 3", "setting": "[1]; same dosage, different routes, FIGS. 2A-2D", "result": "slightly better bioavailability"}, {"measurement": "Duration of depressant effects", "setting": "male Swiss Webster mice [3]; 100 mg/kg IP", "result": 160, "unit": "min"}, {"measurement": "Onset of depressant effects following injection", "setting": "male Swiss Webster mice [3]; 100 mg/kg IP", "result": "≤ 10", "unit": "min"}, {"measurement": "Duration of suppression of spontaneous locomotor activity", "setting": "male Swiss Webster mice [3]", "result": "at least 3 hours"}, {"measurement": "ID50 (dose producing 1/2 maximal depressant activity)", "setting": "male Swiss Webster mice [3]; period 50-80 min, 10 to 100 mg/kg dose range", "result": "~30.2", "unit": "mg/kg"}, {"measurement": "Planned comparisons against the vehicle group, horizontal activity counts in period of maximal depressant effect", "setting": "male Swiss Webster mice [3]", "result": "significant depressant effect for 100 mg/kg"}, {"measurement": "Lethargic effect (compared with Example 3)", "setting": "[4]; higher concentrations", "result": "this effect was reduced"}, {"measurement": "Well tolerated dose", "setting": "[4]", "result": "at least 200 mg/kg"}, {"measurement": "Duration of observable changes in behavior", "setting": "[4]", "result": "2 to 3", "unit": "h"}]}]}
